13 molecules from patent US6610736B1, “16-Halogen-epothilone derivatives, method for producing them and their pharmaceutical use” (Schering AG, priority 1999, dated 2003) can be followed below.

Assay [1] has as its system human MCF-7 breast carcinoma cell line. The assay can be described thus: growth inhibition of MCF-7 cells, crystal-violet assay. Format: cell-based. The following applies: for IC50: crystal-violet assay; for active strength in comparison to reference compound epothilone D: statement on Table 1; for active strength in comparison to reference compound epothilone B: statement on Table 2. The text has this: (§1) a) IC50 values [nM] for the growth inhibition of human MCF-7 breast- and multi-drug-resistant NCl/ADR carcinoma cell lines of the epothilone derivatives with 13Z-olefins in a crystal-violet assay in comparison to epothilone D.
(§2) b) IC50 values [nM] for the growth inhibition of human MCF-7 breast- and multidrug-resistant NCl/ADR carcinoma cell lines of the epothilone derivatives with 13,14-α-epoxide in a crystal-violet assay in comparison to epothilone B.

The subject of assay [2] is multi-drug-resistant NCl/ADR carcinoma cell line. The assay can be described thus: growth inhibition of multi-drug-resistant NCl/ADR cells, crystal-violet assay. Format: cell-based, human. Conditions: for IC50: crystal-violet assay; for Selectivity = IC50 (NCl/ADR) : IC50 (MCF-7): ratio of IC50 NCl/ADR to MCF-7; for selectivity in multi-drug-resistant cell line NCl/ADR in comparison to epothilone B: statement on Table 2.
From the text: as §1, §2

[3] abbreviates: Table 2, 13,14-α-epoxides, in comparison to epothilone B.
[4] abbreviates: Table 1, 13Z-olefins, in comparison to epothilone D.

A value given as a limit tells only on which side of the number the result lay.

By IC50 is commonly meant the midpoint of a concentration-inhibition curve. A lower IC50 goes with inhibition by little substance.

With `CC(=O)O[C@H]1C(=O)[C@@]2(C)[C@H]([C@H](OC(=O)c3ccccc3)[C@]3(O)C[C@H](OC(=O)[C@H](O)[C@@H](NC(=O)c4ccccc4)c4ccccc4)C(C)=C1C3(C)C)[C@]1(OC(C)=O)CO[C@@H]1C[C@@H]2O` [Taxol, reference compound], the IC50 in assay [1] (Homo sapiens, MCF7, Table 1, 13Z-olefins, in comparison to epothilone D) was 4 nM; in assay [2] (Homo sapiens, Table 1, 13Z-olefins, in comparison to epothilone D), more than 100 nM; in assay [2] (setting [3]), more than 100 nM. Also, the “Selectivity = IC50 (NCl/ADR) : IC50 (MCF-7)” value (from here on “Selectivity = IC50 (NCl/ADR) ”) in assay [2] (Table 1) and in assay [2] (Table 2) was >>25 throughout.
On to `C/C1=C/C[C@@H](/C(F)=C/c2csc(C)n2)OC(=O)C[C@H](O)C(C)(C)C(=O)[C@H](C)[C@@H](O)[C@@H](C)CCC1` [Example 1, (4S,7R,8S,9S,13(Z),16S(Z))-4,8-Dihydroxy-16-(1-fluoro-2-(2-methyl-4-thiazolyl)ethenyl)-1-oxa-5,5,7,9,13-pentamethyl-cyclohexadec-13-ene-2,6-dione], for which the IC50 was found to be 4.3 nM in assay [1] (setting [4]) and 12 nM in assay [2] (setting [4]). Also, the “active strength in comparison to reference compound epothilone D” value in assay [1] is “significantly higher active strength”. The “Selectivity = IC50 (NCl/ADR) ” value in assay [2] (Table 1) is 2.8.
Consider `C/C(=C\c1csc(C)n1)[C@@H]1C[C@@H]2O[C@]2(C)CCC[C@H](C)[C@H](O)[C@@H](C)C(=O)C(C)(C)[C@@H](O)CC(=O)O1` [Epothilone B, reference compound], for which the IC50 in assay [1] (setting [3]) stood at 0.6 nM; in assay [2] (setting [3]) it was 3.5 nM. The “Selectivity = IC50 (NCl/ADR) ” value in assay [2] (Table 2) worked out at 5.8.
For the molecule `Cc1nc(C=C(F)C2CC3OC3(C)CCCC(C)C(O)C(C)C(=O)C3(CCC3)C(O)CC(=O)O2)cs1` [Example 10A, (1S,3S(Z),7S,10R,11S,12S,16R)-7,11-Dihydroxy-3-((1-fluoro)-2-(2-methyl-4-thiazolyl)ethenyl)-10,12,16-trimethyl-8,8-(1,3-trimethylene)-4,17-dioxabicyclo[14.1.0]hepta-deca-5,9-dione], the IC50 was 2.1 nM in assay [1] (setting [3]) and 3.9 nM in assay [2] (setting [3]). Moreover, in assay [2] (Table 2), the “Selectivity = IC50 (NCl/ADR) ” value stood at 1.9. The “selectivity in multi-drug-resistant cell line NCl/ADR in comparison to epothilone B” value in assay [2] was “improved selectivity”.
In the case of `Cc1nc(/C=C(\F)[C@@H]2C[C@@H]3O[C@]3(C)CCC[C@H](C)[C@H](O)[C@@H](C)C(=O)C(C)(C)[C@@H](O)CC(=O)O2)cs1` [Example 3B, (1S,3S(Z),7S,10R,11S,12S,16R)-7,11-dihydroxy-3-(1-fluoro-2-(2-methyl-4-thiazolyl)ethenyl)-8,8,10,12,16-pentamethyl-4,17-dioxabicyclo[14.1.0]heptadecane-5,9-dione], the IC50 in assay [1] (setting [3]) amounted to 0.3 nM; in assay [2] (setting [3]) it was 1.4 nM. The “active strength in comparison to reference compound epothilone B” value in assay [1] is given as “comparable or significantly higher active strength”. For the same molecule, in assay [2] (Table 2), the “Selectivity = IC50 (NCl/ADR) ” value is given as 4.7. The “selectivity in multi-drug-resistant cell line NCl/ADR in comparison to epothilone B” value in assay [2] is “improved selectivity”.
Regarding `CC[C@H]1C(=O)C2(CCC2)[C@@H](O)CC(=O)O[C@H](/C(F)=C/c2csc(C)n2)C[C@@H]2O[C@]2(C)CCC[C@H](C)[C@@H]1O` [Example 14A, (1S,3S(Z),7S,10R,11S,12S,16R)-7,11-Dihydroxy-12,16-dimethyl-10-ethyl-3-(1-fluoro-2-(2-methyl-4-thiazolyl)ethenyl) 8,8-(1,3-trimethylene)-4,17-dioxabicyclo[14.1.0]hepta-decane-5,9-dione], the IC50 in assay [1] (setting [3]) was determined as 0.5 nM; in assay [2] (setting [3]) it was 3.5 nM. Further, in assay [1], the “active strength in comparison to reference compound epothilone B” value was “comparable or significantly higher active strength”. In assay [2] (Table 2), the “Selectivity = IC50 (NCl/ADR) ” value came to 7.0.
As for `C/C1=C/C[C@@H](/C(C)=C/c2csc(C)n2)OC(=O)C[C@H](O)C(C)(C)C(=O)[C@H](C)[C@@H](O)[C@@H](C)CCC1` [Epothilone D], the 50% inhibitory concentration (IC50) turned out to be 23 nM in assay [1] (setting [4]) and 50 nM in assay [2] (setting [4]). In addition, the “Selectivity = IC50 (NCl/ADR) ” value in assay [2] (Table 1) came to 2.2.
Take `CC[C@H]1C(=O)C(C)(C)[C@@H](O)CC(=O)O[C@H](/C(F)=C/c2ccccn2)C/C=C(/C)CCC[C@H](C)[C@@H]1O` [Example 17, (4S,7R,8S,9S,13Z,16S(Z))-4,8-Dihydroxy-16-(1-fluoro-2-(2-pyridyl)ethenyl)-7-ethyl-1-oxa-5,5,9,13-tetramethyl-cyclohexadec-13-ene-2,6-dione]: the figures for the IC50 in assay [1] (setting [4]) and in assay [2] (setting [4]) were 6.1 nM and 33 nM, respectively. The “active strength in comparison to reference compound epothilone D” value in assay [1] is given as “significantly higher active strength”. In addition, in assay [2] (Table 1), the “Selectivity = IC50 (NCl/ADR) ” value was found to be 5.4.
Consider “(4S,7R,8S,9S,13(Z),16S(Z)-4,8-Dihydroxy-9,13-diethyl-7-ethyl-16-(1-fluoro-2-(2-methyl-4-thiazolyl)ethenyl)-1-oxa-5,5-(1,3-trimethylene)cyclohexadec-13-ene-2,6-dione [Example 13]”, for which the IC50 in assay [1] (setting [4]) was found to be 5.8 nM; in assay [2] (setting [4]) it was 28 nM. Besides, the “active strength in comparison to reference compound epothilone D” value in assay [1] is given as “significantly higher active strength”. In addition, in assay [2] (Table 1), the “Selectivity = IC50 (NCl/ADR) ” value was 4.8.
In the case of `Cc1nc(/C=C(\Cl)[C@@H]2C[C@@H]3O[C@]3(C)CCC[C@H](C)[C@H](O)[C@@H](C)C(=O)C(C)(C)[C@@H](O)CC(=O)O2)cs1` [Example 7A, (1S,3S(Z),7S,10R,11S,12S,16R)-7,11-Dihydroxy-3-(1-chloro-2-(2-methyl-4-thiazolyl)ethenyl)-8,8,10,12,16-pentamethyl-4,17-dioxabicyclo[14.1.0]heptadecane-5,9-dione], the half-maximal inhibitory concentration (IC50) in assay [1] (setting [3]) stood at 0.8 nM; in assay [2] (setting [3]), 6 nM. In assay [2] (Table 2), the “Selectivity = IC50 (NCl/ADR) ” value is on record as 7.5.
Turning to `CC[C@H]1C(=O)C(C)(C)[C@@H](O)CC(=O)O[C@H](/C(F)=C/c2ccccn2)C[C@@H]2O[C@]2(C)CCC[C@H](C)[C@@H]1O` [Example 20A, (1S,3S(Z),7S,10R,11S,12S,16R)-7,11-Dihydroxy-10-ethyl-3-(1-fluoro-2-(2-pyridyl)ethenyl)-8,8,12,16-tetramethyl-4,17-dioxabicyclo[14.1.0]heptadecane-5,9-dione], the IC50 in assay [1] (setting [3]) stood at 0.6 nM; in assay [2] (setting [3]), 4.6 nM. In addition, the “active strength in comparison to reference compound epothilone B” value in assay [1] is recorded as “comparable or significantly higher active strength”. Further, the “Selectivity = IC50 (NCl/ADR) ” value in assay [2] (Table 2) amounted to 7.6.
Regarding `C/C1=C/C[C@@H](/C(F)=C/c2csc(C)n2)OC(=O)C[C@H](O)C2(CCC2)C(=O)[C@H](C)[C@@H](O)[C@@H](C)CCC1` [Example 9], the results for the IC50 in assay [1] (setting [4]) and in assay [2] (setting [4]) were 5 nM and 10 nM, respectively. In addition, the “active strength in comparison to reference compound epothilone D” value in assay [1] is recorded as “significantly higher active strength”. The “Selectivity = IC50 (NCl/ADR) ” value in assay [2] (Table 1) was determined as 2.0.
For `C/C1=C/C[C@@H](/C(Cl)=C/c2csc(C)n2)OC(=O)C[C@H](O)C(C)(C)C(=O)[C@H](C)[C@@H](O)[C@@H](C)CCC1` [Example 5, (4S,7R,8S,9S,13(Z),16S(Z))-4,8-Dihydroxy-16-(1-chloro-2-(2-methyl-4-thiazolyl)ethenyl)-1-oxa-5,5,7,9,13-pentamethyl-cyclohexadec-13-ene-2,6-dione], the IC50 came to 5.1 nM in assay [1] (setting [4]) and 37 nM in assay [2] (setting [4]). The “Selectivity = IC50 (NCl/ADR) ” value in assay [2] (Table 1) came out at 7.3.
